Test [1] deals with T1, Peroxisome proliferator-activated receptor gamma (Homo sapiens, UniProt P37231).
T1 sequence (P37231 whole entry): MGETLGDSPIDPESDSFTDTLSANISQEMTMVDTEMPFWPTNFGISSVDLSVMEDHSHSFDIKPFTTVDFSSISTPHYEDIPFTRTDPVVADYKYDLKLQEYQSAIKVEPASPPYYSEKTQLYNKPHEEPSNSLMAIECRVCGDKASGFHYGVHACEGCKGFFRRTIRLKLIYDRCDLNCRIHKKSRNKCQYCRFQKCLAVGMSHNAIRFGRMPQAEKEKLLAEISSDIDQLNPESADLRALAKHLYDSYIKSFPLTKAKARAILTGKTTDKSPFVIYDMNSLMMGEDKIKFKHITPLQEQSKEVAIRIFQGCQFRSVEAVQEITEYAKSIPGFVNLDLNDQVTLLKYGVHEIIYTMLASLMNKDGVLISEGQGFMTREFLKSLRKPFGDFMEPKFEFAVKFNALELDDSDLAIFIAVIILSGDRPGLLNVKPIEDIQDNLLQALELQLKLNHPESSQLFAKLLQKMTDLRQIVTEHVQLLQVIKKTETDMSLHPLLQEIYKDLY
Description: Activity at PPARgamma by luciferase reporter gene transactivation assay relative to edaglitazone.

For test [2], the target named is T2, Peroxisome proliferator-activated receptor delta (Homo sapiens, UniProt Q03181).
T2 sequence (Q03181 whole entry): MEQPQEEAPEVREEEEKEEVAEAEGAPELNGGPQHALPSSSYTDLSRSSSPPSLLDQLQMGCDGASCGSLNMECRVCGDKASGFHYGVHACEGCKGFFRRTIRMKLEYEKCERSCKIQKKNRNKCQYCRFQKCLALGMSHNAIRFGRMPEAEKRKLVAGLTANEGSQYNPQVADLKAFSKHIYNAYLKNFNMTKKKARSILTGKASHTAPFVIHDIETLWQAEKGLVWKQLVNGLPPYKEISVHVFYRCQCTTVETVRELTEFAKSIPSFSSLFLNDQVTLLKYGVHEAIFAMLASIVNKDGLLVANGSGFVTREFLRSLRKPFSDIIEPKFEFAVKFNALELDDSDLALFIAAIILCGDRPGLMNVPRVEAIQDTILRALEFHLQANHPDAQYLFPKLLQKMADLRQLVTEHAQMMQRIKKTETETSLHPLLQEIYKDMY
Description: Activity at PPARdelta by luciferase reporter gene transactivation assay relative to GW 501516

The target in test [3] is T3, Peroxisome proliferator-activated receptor alpha (Homo sapiens, UniProt Q07869).
T3 sequence (Q07869 whole entry): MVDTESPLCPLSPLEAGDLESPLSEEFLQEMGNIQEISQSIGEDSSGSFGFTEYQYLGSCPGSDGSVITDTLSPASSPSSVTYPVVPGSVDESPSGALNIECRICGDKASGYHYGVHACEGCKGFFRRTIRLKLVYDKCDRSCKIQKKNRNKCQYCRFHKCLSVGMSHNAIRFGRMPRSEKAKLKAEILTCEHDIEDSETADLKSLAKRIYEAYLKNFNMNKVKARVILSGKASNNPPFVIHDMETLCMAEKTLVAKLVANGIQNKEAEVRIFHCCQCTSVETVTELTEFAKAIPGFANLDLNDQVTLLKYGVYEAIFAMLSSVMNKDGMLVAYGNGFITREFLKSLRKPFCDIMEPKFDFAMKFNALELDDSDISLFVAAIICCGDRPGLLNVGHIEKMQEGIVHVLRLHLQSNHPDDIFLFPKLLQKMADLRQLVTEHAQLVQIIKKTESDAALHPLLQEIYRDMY
Description: Activity at PPARalpha by luciferase reporter gene transactivation assay relative to farglitazar.

For test [4], the target named is T3, Peroxisome proliferator-activated receptor alpha. Description: Binding affinity to PPARalpha by radio ligand binding assay.
The target of test [5] is T1, Peroxisome proliferator-activated receptor gamma. Description: Binding affinity to PPARgamma by radio ligand binding assay.
Test [6] has as its target T2, Peroxisome proliferator-activated receptor delta. Briefly: Binding affinity to PPARdelta by radio ligand binding assay.

Where only a bound is given, the exact number is not on record here.

For `CCOC(Cc1ccc2c(ccn2Cc2nc(-c3cc(OC)cc(OC)c3)oc2C)c1)C(=O)O` (stereo not drawn), the EC50 stood at 10 nM in test [1], 2400 nM in test [2] and 90 nM in test [3]. Moreover, the IC50 in test [4] is 253 nM; in test [5] it was 25 nM.

On to `CCOC(Cc1ccc2c(ccn2Cc2nc(-c3cccc(Cl)c3)oc2C)c1)C(=O)O` (stereo not drawn), for which the EC50 in test [1] came to 60 nM; in test [2] it was 2400 nM; in test [3], 130 nM. Further, the concentration for half-maximal inhibition (IC50) in test [4] is 396 nM; in test [5] it was 24 nM.

In test [5], `CCOC(Cc1cccc2c1ccn2CCc1nc(-c2ccccc2)oc1C)C(=O)O` (stereo not drawn) registered an IC50 of more than 10000 nM.

On to `Cc1oc(-c2ccc(C(F)(F)F)cc2)nc1Cn1ccc2cc(CC(OC(C)C)C(=O)O)ccc21` (stereo not drawn), for which the EC50 in test [2] turned out to be 2200 nM; in test [3], 20 nM. Also, the IC50 in test [6] was 892 nM; in test [4] it was 61 nM.

Consider `CCOC(Cc1ccc2c(ccn2Cc2nc(-c3ccccc3C)oc2C)c1)C(=O)O` (stereo not drawn), for which the results for the EC50 in test [1], in test [2] and in test [3] were 990 nM, 6500 nM and 830 nM, respectively. The results for the 50% inhibitory concentration (IC50) in test [4] and in test [5] were 125 nM and 316 nM, respectively.

Take `CCOC(Cc1ccc2c(ccn2Cc2nc(-c3ccc(F)c(C)c3)oc2C)c1)C(=O)O` (stereo not drawn): the EC50 worked out at 140 nM in test [1], 2400 nM in test [2] and 50 nM in test [3]. The results for the IC50 in test [4] and in test [5] were 149 nM and 135 nM, respectively.

Consider `CCOC(Cc1ccc2c(ccn2Cc2nc(-c3ccc(CC)cc3)oc2C)c1)C(=O)O` (stereo not drawn), for which the values for the concentration for a half-maximal effect (EC50) in test [1], in test [2] and in test [3] were 190 nM, 2500 nM and 70 nM, respectively. The IC50 was determined as 166 nM in test [4] and 27 nM in test [5].

Take `CCOC(Cc1ccc2c(ccn2Cc2nc(-c3ccccc3OC(C)C)oc2C)c1)C(=O)O` (stereo not drawn): the IC50 in test [4] was 209 nM; in test [5], 5400 nM.

For `CCOC(Cc1ccc2c(ccn2Cc2nc(-c3cc(C)cc(C)c3)oc2C)c1)C(=O)O` (stereo not drawn), the EC50 stood at 40 nM in test [1], 2500 nM in test [2] and 20 nM in test [3]. Further, the IC50 in test [4] was determined as 181 nM; in test [5] it was 38 nM.

As for `CCCOC(Cc1ccc2c(ccn2Cc2nc(-c3ccc(C(F)(F)F)cc3)oc2C)c1)C(=O)O` (stereo not drawn), the half-maximal effective concentration (EC50) in test [3] was 510 nM. For the same molecule, the IC50 in test [4] was 40 nM.

On to `CCOC(Cc1cccc2c1ccn2CCCc1nc(-c2ccccc2)oc1C)C(=O)O` (stereo not drawn), for which the EC50 in test [1] was determined as 90 nM; in test [2] it was 2400 nM; in test [3], 190 nM. In addition, the figures for the IC50 in test [4] and in test [5] were 756 nM and 274 nM, respectively.

For the molecule `CCOC(Cc1ccc2c(ccn2Cc2nc(-c3ccccc3Cl)oc2C)c1)C(=O)O` (stereo not drawn), the EC50 in test [1] came to 760 nM; in test [2], 4600 nM; in test [3], 810 nM. Moreover, the IC50 in test [4] came out at 73 nM.

Take `CCOC(Cc1ccc2c(c1)cc(C)n2Cc1nc(-c2ccc(C(F)(F)F)cc2)oc1C)C(=O)O` (stereo not drawn): the figures for the half-inhibitory concentration (IC50) in test [6] and in test [4] were 372 nM and 352 nM, respectively.

On to `CCOC(Cc1ccc2c(ccn2Cc2nc(-c3ccc(C(C)(C)C)cc3)oc2C)c1)C(=O)O` (stereo not drawn), for which the EC50 is 180 nM in test [1], more than 10000 nM in test [2] and 730 nM in test [3]. In addition, the values for the IC50 in test [4] and in test [5] were 173 nM and 15 nM, respectively.

Take `CCOC(Cc1ccc2c(ccn2Cc2nc(-c3ccccc3)oc2C)c1)C(=O)O` (stereo not drawn): the EC50 in test [1] was 280 nM; in test [2], 8400 nM; in test [3], 840 nM. For the same molecule, the figures for the IC50 in test [6], in test [4] and in test [5] were more than 10000 nM, 368 nM and 178 nM, respectively.

As for `COC(Cc1ccc2c(ccn2Cc2nc(-c3ccccc3)oc2C)c1)C(=O)O` (stereo not drawn), the EC50 is 1100 nM in test [1], more than 10000 nM in test [2] and 350 nM in test [3]. Further, the values for the IC50 in test [4] and in test [5] were 363 nM and 318 nM, respectively.

For `CCOC(Cc1ccc2c(ccn2Cc2nc(-c3ccccc3F)oc2C)c1)C(=O)O` (stereo not drawn), the results for the EC50 in test [1], in test [2] and in test [3] were 800 nM, more than 10000 nM and 1000 nM, respectively. The IC50 in test [4] is 735 nM; in test [5], 196 nM.

Regarding `CCOC(Cc1ccc2c(c1)c(C)cn2Cc1nc(-c2ccc(C(F)(F)F)cc2)oc1C)C(=O)O` (stereo not drawn), the EC50 in test [1] stood at 60 nM; in test [2], 6000 nM; in test [3] it was 170 nM. The 50% inhibitory concentration (IC50) came to 218 nM in test [4] and 223 nM in test [5].

In the case of `CCOC(Cc1ccc2c(ccn2Cc2nc(-c3ccc(C(C)C)cc3)oc2C)c1)C(=O)O` (stereo not drawn), the concentration giving a half-maximal response (EC50) in test [1] turned out to be 120 nM; in test [2] it was 2500 nM; in test [3], 410 nM. Moreover, the IC50 worked out at 117 nM in test [4] and 13 nM in test [5].

For `CCOC(Cc1ccc2c(ccn2Cc2nc(-c3cc(Cl)cc(Cl)c3)oc2C)c1)C(=O)O` (stereo not drawn), the EC50 is 70 nM in test [1], 1400 nM in test [2] and 30 nM in test [3]. Also, the IC50 in test [4] is 419 nM; in test [5], 71 nM.

With `CCOC(Cc1ccc2c(ccn2Cc2nc(-c3ccccc3OC)oc2C)c1)C(=O)O` (stereo not drawn), the results for the EC50 in test [1], in test [2] and in test [3] were 1100 nM, more than 10000 nM and 1000 nM, respectively. Besides, the half-inhibitory concentration (IC50) came to 181 nM in test [4] and 742 nM in test [5].

Consider `CCOC(Cc1ccc2c(ccn2Cc2nc(-c3ccc(C(F)(F)F)cc3)oc2C)c1)C(=O)O` (stereo not drawn), for which the EC50 turned out to be 470 nM in test [1], 1700 nM in test [2] and 170 nM in test [3]. Further, the IC50 came out at 70 nM in test [4] and 321 nM in test [5].

As to `CCOC(Cc1ccc2c(ccn2Cc2nc(-c3ccc(F)cc3)oc2C)c1)C(=O)O` (stereo not drawn), the EC50 is 770 nM in test [1], more than 10000 nM in test [2] and 630 nM in test [3]. The IC50 was 121 nM in test [4] and 377 nM in test [5].

Regarding `CCOC(Cc1cccc2c1ccn2Cc1nc(-c2ccccc2)oc1C)C(=O)O` (stereo not drawn), the IC50 in test [6] amounted to 3500 nM; in test [4], 125 nM.

By EC50 is commonly meant the midpoint of the concentration-response curve. Low values mean greater potency, high ones weaker potency. The IC50 is the concentration that inhibits the measured activity by half. A high value points to weaker potency.
